Source: PMC11353420, “Anti-Inflammatory, Cytotoxic, and Genotoxic Effects of Soybean Oligopeptides Conjugated with Mannose” (Foods, 2024)

Legend:
[1] = SRB cytotoxicity assay, 3T3-L1 mature adipocytes; type: cell-based, murine; conditions: mouse; 3T3-L1 Mature-adipocytes, 48 h, SRB
Protocol: (§1) The pre-adipocyte 3T3-L1 cell line was differentiated to become mature adipocytes by culturing the cells to 100% confluence in 10% calf serum DMEM (CS medium), as Day 0 in a 96 well-plate. After post-confluence, the cells were incubated with the induction medium as a differentiation initiation medium (DMEM […] 1 μM DEX, 0.5 mM IBMX, 167 nM insulin, and 10% FBS) for 3 days (Days 1–3). After that, cells were cultured in a differentiation medium as an adipogenic differentiation medium (differentiation media: DMEM containing 167 nM insulin and 10% FBS) for 3 days (Days 4–6). Finally, maturation was induced in an induced-lipid accumulation medium (maturation media: DMEM containing 167 nM insulin and 10% FBS) for 6 days (Days 7–12). The mature adipocytes were then used for toxicity testing.
(§2) The cytotoxicity of the oligopeptide and its conjugated forms on HepG2, HEK293, LX-2, and RAW 264.7 cells, pre- and mature 3T3-L1 adipocytes, and hPBMCs was analyzed by a sulforhodamine (SRB) assay to obtain their non-toxic concentration for further experiments and as screening data for their in vitro safety. The cells were plated for 12 h in 96-well plates and then treated with the oligopeptide and its conjugated sugar at a concentration of 0–1000 µg/mL for 48 h. Dimethyl sulfoxide (DMSO) was used as a vehicle control (the untreated control). At the indicated time, the cells were then fixed and subjected to an SRB assay. The absorbance was measured at 510 nm by spectrophotometry (Gen5, BioTek, Winooski, VT, USA), and the cell viability was calculated as the ratio of the treatment versus untreated control. The data are represented as the mean ± standard deviation of three replicates and are expressed relative to the untreated control. The percentage of cell survival was calculated as follows:% cell survival = (Abs_extract/Abs_control) × 100

3T3-L1 Mature-adipocytes = test: SRB cytotoxicity assay, 3T3-L1 mature adipocytes; type: cell-based, murine; conditions: 48 h
Protocol: as §1, §2

[2] = SRB cytotoxicity assay, RAW 264.7; conditions: mouse
Protocol: (§3) The cells were maintained in a 5% CO2 humidified atmosphere (CO2 incubator, Thermo Scientific, Waltham, MA, USA) at 37 °C and sub-cultured every 3 days.
as §2

[3] = test system: RAW 264.7 murine macrophage cell line; test: SRB cytotoxicity assay, RAW 264.7; conditions: Mus musculus, RAW264.7, 48 h
Protocol: as §3, §2

IL-6 = IL-6 secretion by ELISA in LPS-treated RAW 264.7; type: cell-based, murine; conditions: 100, 200, 400 µg/mL, LPS 1 µg/mL 24 h
Protocol: RAW 264.7 macrophage cells were pretreated with various concentrations of the oligopeptide and its conjugated forms (100, 200, 400 µg/mL) for an hour and then incubated with LPS (1 µg/mL) for further 24 h at 37 °C in a 5% CO2 humidified atmosphere. Then, a sandwich Enzyme Link Immuno-Sorbent Assay was carried out in accordance with the manufacturer’s protocols (BioLegend ELISA MAXTM Deluxe Set, San Diego, CA, USA) to measure TNF-α or IL-6 protein levels in the condition medium.

[4] = test system: Salmonella typhimurium strain TA98; test: Salmonella mutation assay (Ames test), TA98; type: cell-based
Protocol: Overnight bacterial cultures were mixed with various doses of test compounds with (+S9) or without (−S9) and incubated at 37 °C for 20 min. The top agar was added and then poured onto a plate of minimal glucose agar. The plates were incubated at 37 °C for 48 h. The number of revertant colonies was counted and the mutagenic index (MI) was calculated. 2-aminoanthracene (2-AA) and 2-(2-furyl)-3-(5-nitro-2-furyl)-acrylamide (AF-2) were used as positive mutagens in the presence and absence of S9.

iNOS = iNOS protein level by immunoblotting in LPS-treated RAW 264.7; type: cell-based, murine; conditions: 100, 200, 400 µg/mL, LPS 1 µg/mL 24 h
Protocol: RAW 264.7 macrophage cells were pretreated with various concentrations of the oligopeptide and its conjugated forms (100, 200, 400 µg/mL) for an hour and then incubated with LPS (1 µg/mL) for a further 24 h (at 37 °C in a 5% CO2 humidified atmosphere). The cells were then collected to investigate the iNOS and COX-2 protein levels. Cell lysate was prepared to obtain the protein samples. The samples were subjected to 10% sodium dodecyl sulfate polyacrylamide gel electrophoresis (SDS-PAGE). The separated proteins were electrically transferred to a nitrocellulose membrane. The target proteins were probed with specific antibodies, including anti-COX-2 antibody (Cell signaling, Danvers, MA, USA), anti-iNOS antibody (Merck, Rahway, NJ, USA), and anti-β-actin antibody (Sigma, St. Louis, MO, USA). Protein detection was performed using a chemiluminescence reagent (Bio-Rad Laboratories, Watford, UK).

[5] = test system: HepG2 (Human liver carcinoma cell line); test: SRB cytotoxicity assay, HepG2; type: cell-based
From the text: (§4) HEK293 (Human embryonic kidney cell line), HepG2 (Human liver carcinoma cell line), LX-2 (Human hepatic stellate cell line), and 3T3-L1 (Murine preadipocyte cell line) cells were obtained from the American Type Culture Collection (ATCC), Bethesda, MD, USA.

[6] = SRB cytotoxicity assay, HepG2; type: cell-based, human; conditions: human, HepG2 cells; HepG2, 48 h, SRB
From the text: as §4

## OC[C@H]1OC(O)[C@@H](O)[C@@H](O)[C@@H]1O (stereo partly drawn) [Man, D-mannose]
[1]
  IC20 at 48 h: > 1000 µg/mL
3T3-L1 Mature-adipocytes; Mus musculus, 3T3-L1 Mature-adipocytes, SRB, read-out: IC50
  IC50: > 1000 µg/mL
3T3-L1 Mature-adipocytes; mature-3T3-L1, up to 1000 µg/mL
  toxicity to cells: not toxic
[2]
  IC20 at 48 h: > 1000 µg/mL
[3]
  IC50: > 1000 µg/mL
IL-6
  effect on level of IL-6: did not alter
[4]; TA98, +S9, 0.04 mg per plate
  His^+ Revertant Colonies per Plate: 37.7 ± 5.7
[4]; TA98, +S9, 0.2 mg per plate
  His^+ Revertant Colonies per Plate: 37.8 ± 3.8
[4]; TA98, +S9, 1 mg per plate
  His^+ Revertant Colonies per Plate: 36.5 ± 7.5
[4]; TA98, +S9, 5 mg per plate
  His^+ Revertant Colonies per Plate: 38.5 ± 7.8
[4]; TA98, presence and absence of the S9 mix
  mutagenicity: did not cause any mutagenicity
[4]; TA98, −S9, 0.04 mg per plate
  His^+ Revertant Colonies per Plate: 30.5 ± 2.5
[4]; TA98, −S9, 0.2 mg per plate
  His^+ Revertant Colonies per Plate: 30.8 ± 4.8
[4]; TA98, −S9, 1 mg per plate
  His^+ Revertant Colonies per Plate: 27.8 ± 6.5
[4]; TA98, −S9, 5 mg per plate
  His^+ Revertant Colonies per Plate: 28.7 ± 6.0
iNOS
  effect on iNOS protein level: did not affect
[5]; HepG2, up to 1000 µg/mL, 48 h
  toxicity to cells: not toxic
[5]; Homo sapiens, HepG2, 48 h, SRB, read-out: IC50
  IC50: > 1000 µg/mL
[6]
  IC20 at 48 h: > 1000 µg/mL
